From PubChem BioAssay (NCI)
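GI50 is the concentration that inhibits growth by half. TGI: concentration producing complete growth inhibition.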

What was measured:
Test in all cases: DTP human tumour cell line panel, 384-well format
NCI-H460 NSCLC = system: NCI-H460 NSCLC
MOLT-4 leukemia = system: MOLT-4 leukemia
RXF 393 renal = system: RXF 393 renal
MDA-MB-435 melanoma = system: MDA-MB-435 melanoma
SR leukemia = system: SR leukemia
SF-539 CNS = system: SF-539 CNS
U251 glioblastoma = system: U251 glioblastoma
HCC-2998 colon = system: HCC-2998 colon
SNB-75 CNS = system: SNB-75 CNS
HL-60(TB) leukemia = system: HL-60(TB) leukemia
LOX IMVI melanoma = system: LOX IMVI melanoma
786-0 renal = system: 786-0 renal
MDA-MB-231 breast = system: MDA-MB-231 breast
NCI-H322M lung = system: NCI-H322M lung
COLO 205 colon = system: COLO 205 colon
HCT-15 colon = system: HCT-15 colon
HS 578T breast = system: HS 578T breast
K-562 leukemia = system: K-562 leukemia
T-47D breast = system: T-47D breast
HOP-92 NSCLC = system: HOP-92 NSCLC
PC-3 prostate = system: PC-3 prostate
MALME-3M melanoma = system: MALME-3M melanoma
EKVX NSCLC = system: EKVX NSCLC
KM12 colon = system: KM12 colon
OVCAR-3 ovarian = system: OVCAR-3 ovarian
SK-MEL-28 melanoma = system: SK-MEL-28 melanoma
UACC-62 melanoma = system: UACC-62 melanoma
A549 NSCLC = system: A549 NSCLC
OVCAR-5 ovarian = system: OVCAR-5 ovarian
HT29 colon = system: HT29 colon
UACC-257 melanoma = system: UACC-257 melanoma
SK-OV-3 ovarian = system: SK-OV-3 ovarian
NCI-H522 lung = system: NCI-H522 lung
NCI-H23 lung = system: NCI-H23 lung
M14 melanoma = system: M14 melanoma
SF-268 CNS = system: SF-268 CNS
SNB-19 CNS = system: SNB-19 CNS
SF-295 CNS = system: SF-295 CNS
CAKI-1 renal = system: CAKI-1 renal
NCI-H226 lung = system: NCI-H226 lung
RPMI-8226 leukemia = system: RPMI-8226 leukemia
SW-620 colon = system: SW-620 colon
SN12C renal = system: SN12C renal
BT-549 breast = system: BT-549 breast
CCRF-CEM leukemia = system: CCRF-CEM leukemia
OVCAR-4 ovarian = system: OVCAR-4 ovarian
SK-MEL-5 melanoma = system: SK-MEL-5 melanoma
NCI/ADR-RES ovarian = system: NCI/ADR-RES ovarian
UO-31 renal = system: UO-31 renal
HOP-62 NSCLC = system: HOP-62 NSCLC
IGROV1 ovarian = system: IGROV1 ovarian
MDA-MB-468 breast = system: MDA-MB-468 breast

CN1C/C=C/CCOc2cccc(c2)-c2ccnc(n2)Nc2cccc(c2)C1
GI50 (NCI-H460 NSCLC): 19.9 nM
TGI (NCI-H460 NSCLC): 41.9 nM
GI50 (MOLT-4 leukemia): 19.8 nM
TGI (MOLT-4 leukemia): 37.2 nM
GI50 (RXF 393 renal): 19.2 nM
TGI (RXF 393 renal): 35.4 nM
GI50 (MDA-MB-435 melanoma): 29.2 nM
TGI (MDA-MB-435 melanoma): 88.9 nM
TGI (SR leukemia): 14.9 nM
GI50 (SF-539 CNS): 25.2 nM
TGI (SF-539 CNS): 62.6 nM
GI50 (U251 glioblastoma): 34 nM
TGI (U251 glioblastoma): 520 nM
GI50 (HCC-2998 colon): 32.5 nM
TGI (HCC-2998 colon): 219 nM
GI50 (SNB-75 CNS): 26 nM
TGI (SNB-75 CNS): 65.9 nM
GI50 (HL-60(TB) leukemia): 16 nM
TGI (HL-60(TB) leukemia): 29.8 nM
GI50 (LOX IMVI melanoma): 18.5 nM
TGI (LOX IMVI melanoma): 35.7 nM
GI50 ([…]-0 renal): 37 nM
TGI (786-0 renal): 224 nM
GI50 (MDA-MB-231 breast): 51.5 nM
TGI (MDA-MB-231 breast): 296 nM
GI50 (NCI-H322M lung): 30.1 nM
TGI (NCI-H322M lung): 90.6 nM
GI50 (COLO 205 colon): 24.7 nM
TGI (COLO 205 colon): 57.8 nM
GI50 (HCT-15 colon): 30.1 nM
TGI (HCT-15 colon): 119 nM
GI50 (HS 578T breast): 18.7 nM
TGI (HS 578T breast): 43.3 nM
GI50 (K-562 leukemia): 71 nM
TGI (K-562 leukemia): 307 nM
GI50 (T-47D breast): 41.6 nM
TGI (T-47D breast): 1200 nM
GI50 (HOP-92 NSCLC): 44.3 nM
TGI (HOP-92 NSCLC): 3560 nM
GI50 (PC-3 prostate): 31.1 nM
TGI (PC-3 prostate): 94.9 nM
GI50 (MALME-3M melanoma): 33.5 nM
TGI (MALME-3M melanoma): 88.3 nM
GI50 (EKVX NSCLC): 50.2 nM
TGI (EKVX NSCLC): 192 nM
GI50 (KM12 colon): 26 nM
TGI (KM12 colon): 74.7 nM
GI50 (OVCAR-3 ovarian): 22.9 nM
TGI (OVCAR-3 ovarian): 60.3 nM
GI50 (SK-MEL-28 melanoma): 25.7 nM
TGI (SK-MEL-28 melanoma): 86.5 nM
GI50 (UACC-62 melanoma): 18.6 nM
TGI (UACC-62 melanoma): 45.4 nM
GI50 (A549 NSCLC): 35.2 nM
TGI (A549 NSCLC): 1090 nM
GI50 (OVCAR-5 ovarian): 29.4 nM
TGI (OVCAR-5 ovarian): 7380 nM
GI50 (HT29 colon): 36.5 nM
TGI (HT29 colon): 203 nM
GI50 (UACC-257 melanoma): 58.2 nM
TGI (UACC-257 melanoma): 208 nM
GI50 (SK-OV-3 ovarian): 65.3 nM
TGI (SK-OV-3 ovarian): 1140 nM
GI50 (NCI-H522 lung): 59.8 nM
TGI (NCI-H522 lung): 227 nM
TGI (NCI-H23 lung): 106 nM
GI50 (M14 melanoma): 37.7 nM
TGI (M14 melanoma): 118 nM
GI50 (SF-268 CNS): 22.9 nM
TGI (SF-268 CNS): 67.8 nM
GI50 (SNB-19 CNS): 41.1 nM
TGI (SNB-19 CNS): 1600 nM
GI50 (SF-295 CNS): 34 nM
TGI (SF-295 CNS): 504 nM
GI50 (CAKI-1 renal): 30.1 nM
TGI (CAKI-1 renal): 1140 nM
GI50 (NCI-H226 lung): 26.9 nM
TGI (NCI-H226 lung): 86 nM
GI50 (RPMI-8226 leukemia): 23.7 nM
TGI (RPMI-8226 leukemia): 50.6 nM
GI50 (SW-620 colon): 38.1 nM
TGI (SW-620 colon): 279 nM
GI50 (SN12C renal): 27.6 nM
TGI (SN12C renal): 90.3 nM
GI50 (BT-549 breast): 23.5 nM
TGI (BT-549 breast): 50.2 nM
GI50 (CCRF-CEM leukemia): 18.7 nM
TGI (CCRF-CEM leukemia): 35.5 nM
TGI (OVCAR-4 ovarian): 602 nM
GI50 (SK-MEL-5 melanoma): 22 nM
TGI (SK-MEL-5 melanoma): 53.6 nM
GI50 (NCI/ADR-RES ovarian): 34.2 nM
TGI (NCI/ADR-RES ovarian): 124 nM
GI50 (UO-31 renal): 20.6 nM
TGI (UO-31 renal): 40.7 nM
GI50 (HOP-62 NSCLC): 21.6 nM
TGI (HOP-62 NSCLC): 49.4 nM
TGI (IGROV1 ovarian): 128 nM
GI50 (MDA-MB-468 breast): 42.7 nM
TGI (MDA-MB-468 breast): 147 nM
